Common to all, as to format: biochemical
A short description of test [1]: DPPH radical scavenging activity. To be noted: Conc. ± SD; standard ascorbic acid; read-out: IC50 inhibitory concentration, DPPH radical. How it is done: Compounds of SC series were evaluated for their in vitro free radical scavenging activities by 2,2-diphenyl-1-picrylhydrazyl (DPPH) assay method (Blois, [1958]; Shishoo et al., [1999]; Chhajed et al., [2007]). To determine the free radical scavenging activity, a method based on the reduction of a methanolic solution of the coloured DPPH radical was used. To a set of test tubes containing methanol (3 mL), DPPH reagent (2 mg/mL) (50 μL) was added. The initial absorbance was measured. To these test tubes, methanolic solution of different test solutions (1 mg/mL) were added (10–50 μL). Ascorbic acid (0.5 mg/mL) was also added in the concentration of 10, 20, 30, 40, 50 and 100 μL. After 20 min, absorbance was recorded at 516 nm. The experiment was performed in triplicate. The percentage reduction in absorbance was calculated from the initial and final absorbance of each solution (Dhar and Taploo, [1982]).

A short description of test [2]: Lipid peroxidation inhibitory activity (egg lecithin liposomes, TBA). Conditions: Conc. ± SD; standard ascorbic acid; read-out: IC50 inhibitory concentration, Lipid peroxidation. The method, then:
Egg lecithin (3 mg/mL phosphate buffer, pH 7.4) was sonicated in an ultrasonic sonicator for 10 min to ensure proper liposome formation. Test samples or standard, ascorbic acid (100 μL) of different concentrations (10, 20, 30, 40 50 and 100 μg/mL) was added to liposome mixture (1 mL); the control was without test sample. Lipid peroxidation was induced by adding ferric chloride (10 μL, 400 mM) and L-ascorbic acid (10 μL, 200 mM). After incubation for 1 h at 37 °C, the reaction was stopped by adding hydrochloric acid (2 mL, 0.25 N) containing trichloroacetic acid (150 mg/mL), thiobarbituric acid (3.75 mg/mL) and butylated hydroxy anisole (0.50 mg/mL). The reaction mixture was subsequently boiled for 15 min, cooled and centrifuged at 1,000 rpm for 15 min, and the absorbance of the supernatant was measured at 532 nm (Duh and Yen, [1997]). The % inhibition at different concentrations was calculated by the following formula %Inhibition=[1-(Vt/Vc)]×100 where V t = mean absorption of test compound, V c = mean absorption of control.
The IC50 (nM/mL) value was derived from the % inhibition at different concentrations.

Test [3] can be described thus: Superoxide anion radical scavenging (NBT/NADH/PMS). Conditions: Conc. ± SD; standard catechin; read-out: IC50 inhibitory concentration, Superoxide anion. The method, then:
Measurement of superoxide anion scavenging activity of the synthesized compound was taken based on the method described by Nishimiki et al. ([1972]) and slightly modified. […] The reaction mixture was incubated at 25 °C for 5 min, and the absorbance at 560 nm was measured against blank samples. Catechin was used as reference compound. All the experiments were performed in triplicate, and the results were averaged. The percentage of inhibition was determined by comparing the results of control and test samples. The IC50 (nM/mL) value are depicted in Table 1.

Test [4] in a line: Total antioxidant activity (ABTS radical cation scavenging). To be noted: Conc. ± SD; three independent experiments in duplicate; standard trolox; read-out: IC50 inhibitory concentration, ABTS^+ radical. How it is done: The ability of the test sample to scavenge 2,2′-azinobis-(3-ethylbenzothiazoline-6-sulphonic acid) (ABTS^·+) radical cation was compared with 6-hydroxy-2,5,7,8-tetramethylchroman-2-carboxylic acid (trolox) standard (Chang et al., [2007]; Erel, [2004]; Re et al., [1999]). The ABTS^·+ radical cation was pregenerated by mixing ABTS stock solution (7 mM) with potassium persulphate (2.45 mM) (final concentration) and incubating for 12–16 h in the dark at room temperature until the reaction was complete and the absorbance was stable. The absorbance of the ABTS^·+ solution was equilibrated to 0.70 (±0.02) by diluting with water at room temperature, then 1 mL of solution was mixed with 10 μL of the test sample (0.05–10 mg/mL), and the absorbance was measured at 734 nm after 6 min. All experiments were repeated three times. The percentage inhibition of absorbance was calculated and plotted as a function of the concentration of standard and sample to determine the trolox equivalent antioxidant concentration (TEAC). To calculate the TEAC, the gradient of the plot for the sample was divided by the gradient of the plot for trolox. The IC50 inhibitory concentration (nM/mL) values of tested compounds are depicted in Table 1. The ABTS^·+ radical scavenging activity of the samples was expressed as S%=[(Acontrol-Asample)/Acontrol]×100 where A control is the absorbance of the blank control (ABTS^·+ solution without test sample), and A sample is the absorbance of the test sample.

The structures appear in SMILES notation.

Consider `O=C1O[C@H]([C@@H](O)CO)C(O)=C1O` [ascorbic acid, reference compound], for which the values for the IC50 in test [1] and in test [2] were 187 ± 35.4 µM and 150 ± 16.9 µM, respectively.
In the case of `Oc1cc(O)c2c(c1)O[C@H](c1ccc(O)c(O)c1)[C@@H](O)C2` [catechin, reference compound], in test [3], the IC50 came out at 171 ± 9.1 µM.
As for `Cc1c(C)c2c(c(C)c1O)CCC(C)(C(=O)O)O2` (stereo not shown) [trolox, 6-hydroxy-2,5,7,8-tetramethylchroman-2-carboxylic acid, reference compound], the IC50 in test [4] worked out at 84.5 ± 9.39 µM.

For the origin of these results see PMC3973950, “Synthesis of 5-arylidine amino-1,3,4-thiadiazol-2-[(N-substituted benzyol)]sulphonamides endowed with potent antioxidants and anticancer activity induces growth inhibition in HEK293, BT474 and NCI-H226 cells” (Medicinal Chemistry Research, 2013).
